# Where two headings read alike, the source gives them in different places.
# Columns and labels:
# Format in all cases: cell-based
# [1] = system: Aspergillus fumigatus ATCC 204305; test: Antifungal microdilution broth (EUCAST); details: for MIC: read-out: MIC (visual detection)
# [2] = system: Candida krusei CCM 8271 (ATCC 6258); test: Antifungal microdilution broth (EUCAST); details: Pichia kudriavzevii; for MIC: read-out: MIC (visual detection)
# [3] = system: Candida tropicalis CCM 8264 (ATCC 750); test: Antifungal microdilution broth (EUCAST); details: for MIC: read-out: MIC (visual detection)
# [4] = system: Aspergillus flavus CCM 8363; test: Antifungal microdilution broth (EUCAST); details: for MIC: read-out: MIC (visual detection)
# [5] = system: Candida albicans CCM 8320 (ATCC 24433); test: Antifungal microdilution broth (EUCAST); details: for MIC: read-out: MIC (visual detection)
# [6] = system: Candida parapsilosis CCM 8260 (ATCC 22019); test: Antifungal microdilution broth (EUCAST); details: Lodderomyces parapsilosis; for MIC: read-out: MIC (visual detection)
# [7] = system: Lichtheimia corymbifera CCM 8077; test: Antifungal microdilution broth (EUCAST); details: for MIC: read-out: MIC (visual detection)
# [8] = system: Trichophyton interdigitale CCM 8377 (ATCC 9533); test: Antifungal microdilution broth (EUCAST); details: for MIC: read-out: MIC (visual detection)
# [9] = system: Acinetobacter baumannii DSM 30007 (ATCC 19606); test: Antibacterial microdilution broth (EUCAST); details: 24 h
# [10] = system: Staphylococcus epidermidis CCM 4418 (ATCC 12228); test: Antibacterial microdilution broth (EUCAST)
# [11] = system: methicillin-resistant Staphylococcus aureus subsp. aureus (MRSA) CCM 4750 (ATCC 43300); test: microbe, parasite or virus in culture; details: 24 h
# [12] = system: Staphylococcus aureus subsp. aureus CCM 4223 (ATCC 29213); test: Antibacterial microdilution broth (EUCAST)
# [13] = system: Klebsiella pneumoniae CCM 4415 (ATCC 10031); test: Antibacterial microdilution broth (EUCAST); details: Klebsiella pneumoniae
# [14] = system: Pseudomonas aeruginosa CCM 3955 (ATCC 27853); test: Antibacterial microdilution broth (EUCAST)
# [15] = system: Enterococcus faecalis CCM 4224 (ATCC 29212); test: Antibacterial microdilution broth (EUCAST); details: 24 h
# [16] = system: Escherichia coli CCM 3954 (ATCC 25922); test: Antibacterial microdilution broth (EUCAST); details: Escherichia coli
# [17] = read-out: MIC (spectrophotometric detection, 530 nm)
# [18] = read-out: MIC (visual detection)
# [19] = 24 h, read-out: IC50 (spectrophotometric detection, 530 nm)
smiles,measurement,setting,value
"C[C@@H]1[C@H](O)[C@@H](C)/C=C/C=C/C=C/C=C/C=C/C=C/C=C/[C@H](O[C@@H]2O[C@H](C)[C@@H](O)[C@H](N)[C@@H]2O)C[C@@H]2O[C@](O)(C[C@@H](O)C[C@@H](O)[C@H](O)CC[C@@H](O)C[C@@H](O)CC(=O)O[C@H]1C)C[C@H](O)[C@H]2C(=O)O [amphotericin B, reference compound]",IC90,"[1]; ATCC204305, Aspergillus fumigatus ATCC 204305, 48 h, read-out: IC90 (spectrophotometric detection, 530 nm)",4330 nM
same,MIC,"[1]; ATCC204305, Aspergillus fumigatus ATCC 204305, 48 h",4.33 µM
same,IC90,"[2]; Candida krusei CCM 8271, 24 h, read-out: IC90 (spectrophotometric detection, 530 nm)",1080 nM
same,MIC,"[2]; Candida krusei CCM 8271, 24 h",1.08 µM
same,IC90,"[3]; ATCC 750 / CCM 8264 / CCM 8321, CCM 8321, 24 h, read-out: IC90 (spectrophotometric detection, 530 nm)",1080 nM
same,MIC,"[3]; ATCC 750 / CCM 8264 / CCM 8321, CCM 8321, 24 h",1.08 µM
same,IC90,"[4]; CCM8363, Aspergillus flavus CCM 8363, 48 h, read-out: IC90 (spectrophotometric detection, 530 nm)",4330 nM
same,MIC,"[4]; CCM8363, Aspergillus flavus CCM 8363, 48 h",4.33 µM
same,IC90,"[5]; Candida albicans CCM 8320, 24 h, read-out: IC90 (spectrophotometric detection, 530 nm)",1080 nM
same,MIC,"[5]; Candida albicans CCM 8320, 24 h",1.08 µM
same,IC90,"[6]; Candida parapsilosis CCM 8260, 24 h, read-out: IC90 (spectrophotometric detection, 530 nm)",541 nM
same,MIC,"[6]; Candida parapsilosis CCM 8260, 24 h",0.541 µM
same,IC90,"[7]; CCM8077, Lichtheimia corymbifera CCM 8077, 48 h, read-out: IC90 (spectrophotometric detection, 530 nm)",1080 nM
same,MIC,"[7]; CCM8077, Lichtheimia corymbifera CCM 8077, 48 h",1.08 µM
same,IC90,"[8]; Trichophyton interdigitale CCM 8377, read-out: IC90 (spectrophotometric detection, 530 nm)",1080 nM
same,MIC,[8]; Trichophyton interdigitale CCM 8377,1.08 µM
"CNC(C)C1CCC(N)C(OC2C(N)CC(N)C(OC3OCC(C)(O)C(NC)C3O)C2O)O1 (stereo not drawn) [gentamicin, reference compound]",MIC,[9]; [17],16.8 µM
same,MIC,[9]; [18],16.8 µM
same,MIC,"[10]; S. epidermidis CCM 4418, 95% growth inhibition, 24 h, read-out: MIC (spectrophotometric detection, 530 nm)",0.131 µM
same,MIC,"[10]; S. epidermidis CCM 4418, 24 h, read-out: MIC (visual detection)",0.131 µM
same,MIC,[11]; [17],> 16.8 µM
same,MIC,[11]; [18],> 16.8 µM
same,MIC,"[12]; S. aureus CCM 4223, 95% growth inhibition, 24 h, read-out: MIC (spectrophotometric detection, 530 nm)",2.09 µM
same,MIC,"[12]; S. aureus CCM 4223, 24 h, read-out: MIC (visual detection)",1.05 µM
same,MIC,"[13]; K. pneumoniae CCM 4415, 95% growth inhibition, 24 h, read-out: MIC (spectrophotometric detection, 530 nm)",1.05 µM
same,MIC,"[13]; K. pneumoniae CCM 4415, 24 h, read-out: MIC (visual detection)",1.05 µM
same,MIC,"[14]; P. aeruginosa CCM 3955, 95% growth inhibition, 24 h, read-out: MIC (spectrophotometric detection, 530 nm)",1.05 µM
same,MIC,"[14]; P. aeruginosa CCM 3955, 24 h, read-out: MIC (visual detection)",1.05 µM
same,MIC,[15]; [17],> 16.8 µM
same,MIC,[15]; [18],> 16.8 µM
same,MIC,"[16]; E. coli CCM 3954, 95% growth inhibition, 24 h, read-out: MIC (spectrophotometric detection, 530 nm)",2.09 µM
same,MIC,"[16]; E. coli CCM 3954, 24 h, read-out: MIC (visual detection)",> 2.09 µM
"C[C@@H](c1ncncc1F)[C@](O)(Cn1cncn1)c1ccc(F)cc1F [voriconazole, reference compound]",IC50,"[1]; Aspergillus fumigatus, ATCC204305, 48 h, read-out: IC50 (spectrophotometric detection, 530 nm)",716 nM
same,MIC,"[1]; Aspergillus fumigatus, ATCC204305, 48 h",2.86 µM
same,IC50,[2]; [19],716 nM
same,MIC,[2]; 24 h,> 45.8 µM
same,IC50,"[3]; ATCC 750 / CCM 8264 / CCM 8321, 24 h, read-out: IC50 (spectrophotometric detection, 530 nm)",179 nM
same,MIC,"[3]; ATCC 750 / CCM 8264 / CCM 8321, 24 h",> 45.8 µM
same,IC50,"[4]; Aspergillus flavus, CCM8363, 48 h, read-out: IC50 (spectrophotometric detection, 530 nm)",5730 nM
same,MIC,"[4]; Aspergillus flavus, CCM8363, 48 h",> 45.8 µM
same,IC50,"[5]; Candida albicans, 24 h, read-out: IC50 (spectrophotometric detection, 530 nm)",86 nM
same,MIC,"[5]; Candida albicans, 24 h",> 45.8 µM
same,IC50,[6]; [19],86 nM
same,MIC,[6]; 24 h,> 45.8 µM
same,IC50,"[7]; Lichtheimia corymbifera, CCM8077, 48 h, read-out: IC50 (spectrophotometric detection, 530 nm)",> 45800 nM
same,MIC,"[7]; Lichtheimia corymbifera, CCM8077, 48 h",> 45.8 µM
same,IC50,"[8]; Trichophyton interdigitale, read-out: IC50 (spectrophotometric detection, 530 nm)",2860 nM
same,MIC,[8]; Trichophyton interdigitale,> 45.8 µM
